Tests used:
Test in all cases: KinaseProfiler Assay
[1] = target: Abl(Q252H)(h) (Homo sapiens, UniProt P00519, Q252H)
[2] = target: T1, DCAMKL2(h) (Homo sapiens, UniProt Q8N568)
T1 sequence (Q8N568 1-766): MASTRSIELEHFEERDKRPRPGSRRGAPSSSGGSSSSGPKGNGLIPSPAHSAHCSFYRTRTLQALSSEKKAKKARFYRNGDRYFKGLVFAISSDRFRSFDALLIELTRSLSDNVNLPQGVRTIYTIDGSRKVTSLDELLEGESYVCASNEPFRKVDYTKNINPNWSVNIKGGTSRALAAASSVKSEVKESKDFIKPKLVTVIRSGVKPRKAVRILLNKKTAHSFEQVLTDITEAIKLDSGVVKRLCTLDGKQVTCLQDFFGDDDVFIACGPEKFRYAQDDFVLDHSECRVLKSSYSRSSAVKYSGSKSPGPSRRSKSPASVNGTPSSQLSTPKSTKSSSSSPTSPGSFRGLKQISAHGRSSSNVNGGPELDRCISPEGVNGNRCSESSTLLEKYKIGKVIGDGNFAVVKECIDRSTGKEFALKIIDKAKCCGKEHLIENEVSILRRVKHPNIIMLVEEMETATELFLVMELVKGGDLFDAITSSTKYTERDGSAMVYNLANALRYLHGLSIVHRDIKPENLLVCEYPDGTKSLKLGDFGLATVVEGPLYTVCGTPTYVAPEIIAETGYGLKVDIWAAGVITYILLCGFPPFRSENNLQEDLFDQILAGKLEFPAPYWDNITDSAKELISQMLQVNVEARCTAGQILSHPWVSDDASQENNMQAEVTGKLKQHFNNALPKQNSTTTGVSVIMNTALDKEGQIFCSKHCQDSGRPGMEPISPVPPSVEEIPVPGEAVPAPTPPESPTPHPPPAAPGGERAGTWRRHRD

[3] = target: T2, PrKX(h) (Homo sapiens, UniProt P51817)
T2 sequence (P51817 1-358): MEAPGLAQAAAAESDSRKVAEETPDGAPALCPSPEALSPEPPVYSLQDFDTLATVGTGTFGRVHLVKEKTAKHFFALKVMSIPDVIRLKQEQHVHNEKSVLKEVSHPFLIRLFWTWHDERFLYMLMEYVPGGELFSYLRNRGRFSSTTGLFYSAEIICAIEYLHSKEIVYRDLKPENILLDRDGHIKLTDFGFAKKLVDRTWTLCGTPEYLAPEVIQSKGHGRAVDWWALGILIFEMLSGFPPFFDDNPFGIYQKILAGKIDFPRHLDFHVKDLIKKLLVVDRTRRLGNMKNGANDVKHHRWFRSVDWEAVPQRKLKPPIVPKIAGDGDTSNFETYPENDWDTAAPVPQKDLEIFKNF

[4] = target: Rsk1(r) (Rattus norvegicus, UniProt Q63531)
[5] = target: CDK2/cyclinE(h) (Homo sapiens, UniProt P24941)
[6] = target: PI 3-Kinaseβ(h) (Homo sapiens, UniProt P42338)
Chain of PI 3-Kinaseβ(h) (P42338 whole entry): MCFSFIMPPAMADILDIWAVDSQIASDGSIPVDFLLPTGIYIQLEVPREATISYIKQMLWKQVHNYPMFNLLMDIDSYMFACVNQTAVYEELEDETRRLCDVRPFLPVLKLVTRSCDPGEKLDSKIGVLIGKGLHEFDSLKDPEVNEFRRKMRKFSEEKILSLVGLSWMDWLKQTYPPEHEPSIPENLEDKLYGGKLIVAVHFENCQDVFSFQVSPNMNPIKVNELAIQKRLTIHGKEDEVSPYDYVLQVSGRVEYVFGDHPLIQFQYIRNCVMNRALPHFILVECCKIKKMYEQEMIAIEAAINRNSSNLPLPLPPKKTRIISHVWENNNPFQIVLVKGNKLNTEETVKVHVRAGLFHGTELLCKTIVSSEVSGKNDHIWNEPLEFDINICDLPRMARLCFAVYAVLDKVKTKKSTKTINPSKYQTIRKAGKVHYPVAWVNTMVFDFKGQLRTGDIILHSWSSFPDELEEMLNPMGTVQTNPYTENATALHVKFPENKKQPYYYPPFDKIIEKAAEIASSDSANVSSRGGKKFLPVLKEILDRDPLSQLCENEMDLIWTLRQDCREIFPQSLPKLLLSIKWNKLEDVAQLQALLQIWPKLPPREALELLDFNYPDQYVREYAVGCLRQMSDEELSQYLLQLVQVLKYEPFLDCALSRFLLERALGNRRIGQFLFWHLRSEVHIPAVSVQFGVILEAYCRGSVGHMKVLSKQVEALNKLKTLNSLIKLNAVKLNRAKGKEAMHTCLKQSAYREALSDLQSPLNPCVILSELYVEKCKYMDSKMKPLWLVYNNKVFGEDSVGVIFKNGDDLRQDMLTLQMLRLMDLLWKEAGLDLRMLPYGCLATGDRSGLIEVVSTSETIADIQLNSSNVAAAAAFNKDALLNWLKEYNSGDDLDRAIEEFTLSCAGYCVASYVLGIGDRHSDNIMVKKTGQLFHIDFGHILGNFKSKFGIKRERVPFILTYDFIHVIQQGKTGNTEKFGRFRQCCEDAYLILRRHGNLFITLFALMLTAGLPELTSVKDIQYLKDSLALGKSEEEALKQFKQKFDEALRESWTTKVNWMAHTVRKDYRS
Chain of PI 3-Kinaseβ(h) (P27986 whole entry partner): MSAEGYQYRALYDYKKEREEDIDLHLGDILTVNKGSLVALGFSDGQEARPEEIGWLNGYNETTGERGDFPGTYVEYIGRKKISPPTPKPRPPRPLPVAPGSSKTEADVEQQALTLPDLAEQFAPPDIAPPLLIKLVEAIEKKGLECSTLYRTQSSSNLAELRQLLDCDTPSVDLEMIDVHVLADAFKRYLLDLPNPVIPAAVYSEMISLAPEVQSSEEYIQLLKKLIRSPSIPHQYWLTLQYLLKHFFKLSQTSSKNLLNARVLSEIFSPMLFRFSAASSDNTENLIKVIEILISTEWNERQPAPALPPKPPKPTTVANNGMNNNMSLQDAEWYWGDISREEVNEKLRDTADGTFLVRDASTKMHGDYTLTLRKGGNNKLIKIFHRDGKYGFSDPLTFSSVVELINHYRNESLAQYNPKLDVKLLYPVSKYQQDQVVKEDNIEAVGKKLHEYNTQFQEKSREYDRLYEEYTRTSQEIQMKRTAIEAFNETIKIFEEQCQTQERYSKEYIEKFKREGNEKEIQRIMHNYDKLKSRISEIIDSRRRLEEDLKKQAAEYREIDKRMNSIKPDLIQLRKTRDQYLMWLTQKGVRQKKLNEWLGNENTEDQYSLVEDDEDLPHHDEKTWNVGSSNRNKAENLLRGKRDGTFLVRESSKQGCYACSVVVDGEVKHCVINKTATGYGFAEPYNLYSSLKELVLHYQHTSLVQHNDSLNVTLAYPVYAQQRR

Chain of Rsk1(r) (Q63531 whole entry): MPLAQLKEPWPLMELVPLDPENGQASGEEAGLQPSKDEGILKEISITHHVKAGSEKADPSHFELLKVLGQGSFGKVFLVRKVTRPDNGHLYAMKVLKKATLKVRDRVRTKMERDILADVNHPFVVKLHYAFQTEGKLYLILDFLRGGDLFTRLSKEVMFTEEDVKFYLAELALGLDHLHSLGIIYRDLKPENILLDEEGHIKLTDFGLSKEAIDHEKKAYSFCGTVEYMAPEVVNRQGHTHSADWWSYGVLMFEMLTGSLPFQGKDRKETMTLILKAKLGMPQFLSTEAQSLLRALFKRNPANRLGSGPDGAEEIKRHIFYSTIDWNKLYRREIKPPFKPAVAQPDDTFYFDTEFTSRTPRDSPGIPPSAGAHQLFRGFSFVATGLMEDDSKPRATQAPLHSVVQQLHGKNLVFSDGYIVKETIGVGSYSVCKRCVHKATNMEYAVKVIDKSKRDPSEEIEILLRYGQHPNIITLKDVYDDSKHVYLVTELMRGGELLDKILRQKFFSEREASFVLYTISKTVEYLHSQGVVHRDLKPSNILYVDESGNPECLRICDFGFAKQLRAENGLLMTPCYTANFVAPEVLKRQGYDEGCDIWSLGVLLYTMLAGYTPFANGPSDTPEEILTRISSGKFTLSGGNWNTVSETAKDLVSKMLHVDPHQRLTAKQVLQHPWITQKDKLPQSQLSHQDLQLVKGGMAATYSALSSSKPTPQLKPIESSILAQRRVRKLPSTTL

CC(C)CCC(=O)[C@]1(O)C(O)=C(C(=O)C(C)C)C(=O)[C@H]1CCC(C)C [TH2, tetrahydroiso-cohumulone]
kinase inhibition ([1]; 1 μg/ml): 96% of control | kinase inhibition ([1]; 5 μg/ml): 96% of control | kinase inhibition ([1]; 25 μg/ml): 66% of control | kinase inhibition ([1]; 50 μg/ml): 68% of control | kinase inhibition ([1]; 100 μg/ml): 47% of control | kinase inhibition ([2]; 1 μg/ml): 96% of control | kinase inhibition ([2]; 5 μg/ml): 100% of control | kinase inhibition ([2]; 25 μg/ml): 110% of control | kinase inhibition ([2]; 50 μg/ml): 96% of control | kinase inhibition ([2]; 100 μg/ml): 86% of control | kinase inhibition ([3]; 1 μg/ml): 101% of control | kinase inhibition ([3]; 5 μg/ml): 103% of control | kinase inhibition ([3]; 25 μg/ml): 98% of control | kinase inhibition ([3]; 50 μg/ml): 88% of control | kinase inhibition ([3]; 100 μg/ml): 66% of control | kinase inhibition ([4]; 1 μg/ml): 101% of control | kinase inhibition ([4]; 5 μg/ml): 102% of control | kinase inhibition ([4]; 25 μg/ml): 93% of control | kinase inhibition ([4]; 50 μg/ml): 63% of control | kinase inhibition ([4]; 100 μg/ml): 36% of control | kinase inhibition ([5]; 1 μg/ml): 95% of control | kinase inhibition ([5]; 5 μg/ml): 101% of control | kinase inhibition ([5]; 25 μg/ml): 93% of control | kinase inhibition ([5]; 50 μg/ml): 71% of control | kinase inhibition ([5]; 100 μg/ml): 54% of control | kinase inhibition ([6]; 1 μg/ml): 99% of control | kinase inhibition ([6]; 5 μg/ml): 95% of control | kinase inhibition ([6]; 25 μg/ml): 75% of control | kinase inhibition ([6]; 50 μg/ml): 47% of control | kinase inhibition ([6]; 100 μg/ml): 28% of control

— patent publication US20100137449A1, “SUBSTITUTED 1,3-CYCLOPENTADIONE MULTI-TARGET PROTEIN KINASE MODULATORS OF CANCER, ANGIOGENESIS AND THE INFLAMMATORY PATHWAYS ASSOCIATED THEREWITH” (METAPROTEOMICS, LLC, priority 2007, published 2010)
